From patent US7947854B2, “Bis-cationic compounds and use thereof” (The University of Sydney, priority 2003, dated 2011) come the findings set out here.

Where two headings read alike, the source gives them in different places. A value given as a limit tells only on which side of the number the result lay.

In data set [1] the test system is secreted phospholipase B (PLB activity). Briefly: Radiometric assay, secreted PLB activity. In kind it is biochemical, Cryptococcus neoformans H99. The procedure: (§1) Fungal isolates and media. […] Isolate H99 was kindly supplied by Dr. Gary Cox (Duke University Medical Center, Durham, N.C., USA), and subcultured onto Sabouraud dextrose agar (SDA) at 30° C.
(§2) Preparation of supernatants containing secreted phospholipase activities. Isolate H99 was grown to confluence on SDA in 16 cm diameter Petri dishes for 72 h at 30° C. in air. Cells scraped from 10-20 dishes were washed sequentially with isotonic saline and imidazole buffer (10 mM imidazole, 2 mM CaCl2, 2 mM Mg Cl2, 56 mM D-Glucose, made up in isotonic saline, pH 5.5), resuspended in a volume of this buffer of about 10% of the cell volume, and incubated for 24 h at 37° C. The cell-free supernatant was separated by centrifugation as previously described and stored at −70° C.
Radiometric assay method for phospholipases. Enzyme activities were measured as described previously in a final volume of 125 μL at 37° C. For the determination of secreted PLB activity, carrier dipalmitoyl phosphatidylcholine (DPPC, final concentration 800 μM) and 1,2-di[1-^14C] palmitoyl phosphatidylcholine (20,000 dpm) were dried under nitrogen and suspended in 125 mM imidazole acetate buffer (assay buffer, pH 4.0) by sonication using a Branson 450 sonifier. The reaction time was 22 min, using 1 μg total protein and PLB activity was determined by the rate of decrease of the radiolabelled PC substrate, with appearance of the label in free fatty acid. This assay also simultaneously allows for the determination of phospholipase A, C and D activities. These activities were measured by the appearance of radiolabel from PC in Lyso PC, diacylglycerol and phosphatidic acid, respectively.
(§3) All reactions were terminated by adding 0.5 mL of chloroform:methanol (2:1 v/v). The reaction products were extracted by the method as disclosed in Bligh, E. C. and W. J. Dyer. 1959 ‘A rapid method of total lipid extraction and purification.’ Can. J. Biochem. Physiol. 37:911-917, separated by TLC and quantified as previously described. In the case of PLC activity, the TLC plates were developed in petroleum ether (BP 60-80° C.): diethyl ether: acetic acid (90:15:1, v/v/v) instead of chloroform:methanol:water (65:25:4, v/v/v).
(§4) Preparation of inhibitors and use in assays. The following compounds were tested (for structures, see FIG. 2): compound 1, 1,12-bis(tributylphosphonium)dodecane dibromide (Fluka AG, Buchs, Switzerland); compound 2, 1,10-bis(tributylammonium)-decane dibromide; compound 3, 1,12-bis(tributylammonium)do-decane dibromide (both synthesised in-house); compound 4, 1,10-bis(trimethylammonium)decane dibromide [“decamethonium”] (Sigma, St. Louis Mo., USA). All compounds were prepared as stock solutions of 700 μM in assay buffer containing 5 mM EDTA, which was then diluted serially with buffer to obtain solutions of 70, 7, 0.7 and 0.07 μM. In each assay, 45 μL of these solutions was used, and the final volume of 125 μL was made up of substrate, enzyme and buffer. The radiometric assay was carried out as above. Inhibition was calculated as the percent of substrates (DPPC or Lyso-PC) remaining in the case of PLB and LPL activities, or of DPPC produced, in the case of the LPTA activity. The amounts converted, or produced, in the inhibitor-free control were normalised to 100%, and the inhibition calculated against it. All assays were done in triplicate.
(§5) Under these conditions only PLB, LPL and LPTA activities (both secreted and cell-associated) were measured. Initially, compounds deemed to be potential inhibitors were assayed at 25 and 250 μM. Those showing some inhibition were then also assayed at 2.5 and 0.25 μM.

Data set [2] relates to secreted phospholipase B (LPL/LPTA activities). Briefly: Radiometric assay, secreted LPL and LPTA activities (Lyso assay). In kind it is biochemical, Cryptococcus neoformans H99. How it is done: as §1, §2
Secreted LPL and LPTA activities were measured simultaneously in a reaction mixture containing 1-[^14C]palmitoyl lyso-PC (25,000 dpm) and carrier lyso-PC (final concentration 200 μM) in assay buffer. The reaction time was […] with 1 μg of total protein and LPL activity was measured by the rate of loss of 1-[^14C]palmitoyl lyso-PC with release of radiolabelled fatty acids. LPTA activity was estimated from the rate of formation of radiolabelled PC.
as §3, §4, §5

Data set [3] deals with Candida albicans ATCC 10231. Briefly: Antifungal susceptibility testing, microdilution MIC. In kind it is cell-based. The procedure: (§6) Antifungal susceptibility testing. The antifingal activity of the compounds was measured by a standard microdilution method. […] The fungal strains tested included Cryptococcus neoformans H99, Cryptococcus neoformans ATCC 90112 and Candida albicans ATCC 10231. All tests were performed in duplicate.
(§7) A range of cationic compounds were assayed for antifungal activity in a standardised serial dilution sensitivity test against C. neoformans ([…]) and C. Albicans (ATCC 10231).
On the technique in general: Broth dilution looks for growth in wells or tubes with falling amounts of substance.

Data set [4] deals with Cryptococcus neoformans ATCC 90112. Described as above. In kind it is cell-based. The procedure:
as §6, §7

The test system of data set [5] is erythrocyte. It counts as cell-based. As to conditions: 37° C., 1 h. The procedure: Human blood was collected in 10 mL Vacutainer tubes containing potassium-EDTA as anticoagulant. The blood from each vacutainer was transferred to a 50 mL centrifuge tube and the cells washed three times with calcium- and magnesium-free phosphate buffered saline (PBS) (Gibco) by centrifugation at 2000×g for 15 min. The third supernatant was clear and colourless. Cells were stored in PBS for up to two weeks. The cell suspension in PBS (0.5 mL) was mixed with a stock solution of test substance (0.5 mL) at the appropriate concentration (final erythrocyte concentration of approx. 0.5×10^9 per mL). The mixtures were incubated at 37° C. for 1 h with gentle shaking, then centrifuged at 2000×g for 10 min. The supernatant was diluted 10-fold with PBS and the optical density measured at 540 nm. The values for 0% and 100% lysis were determined by incubating cells with PBS or 0.1% Triton X-100 (in water), respectively. Assays were carried out in triplicate.

Where [6] appears, read: Candida albicans, ATCC10231, Table 7, read-out: MIC (μM) C. alb. (10231).
Setting [7] is: Cryptococcus neoformans, ATCC90112, Table 7, read-out: MIC (μM) Crypto. (ATCC 90112).
[8] abbreviates: Candida albicans, ATCC10231, read-out: MIC (μM) C. alb. (10231).
[9] abbreviates: Cryptococcus neoformans, ATCC90112, read-out: MIC (μM) Crypto. (ATCC 90112).

`CCCCCCCCCCCCCCCC[P+](CCCC)(CCCC)CCCC`: the “PLB assay (% inhibition)” value is on record as 0% in data set [1] (0.25 μM), 15% in data set [1] (2.5 μM), 37% in data set [1] (25 μM) and 92% in data set [1] (250 μM). Also, the “Lyso assay (% inhibition) LPL” value in data set [2] (0.25 μM) was found to be 0%; in data set [2] (2.5 μM), 0%; in data set [2] (25 μM), 15%; in data set [2] (250 μM) it was 98%. The “Lyso assay (% inhibition) LPTA” value in data set [2] (0.25 μM) is recorded as 0%; in data set [2] (2.5 μM), 0%; in data set [2] (25 μM) it was 5%; in data set [2] (250 μM) it was 95%. Further, the MIC was 2.2 µM in data set [3] (setting [6]) and not above 0.6 µM in data set [4] (setting [7]). Also, the “Haemolytic assay (%)” value came out at 2.5% in data set [5] (3.5 μM); 4% in data set [5] (35 μM); 7% in data set [5] (88 μM); 32% in data set [5] (175 μM); 100% in data set [5] (350 μM).

Take `C[N+](C)(C)CCCCCCCCCCCC[N+](C)(C)C` [1,12-Bis-(trimethylammonium)dodecane dibromide]: the “PLB assay (% inhibition)” value stood at 2% in data set [1] (25 μM) and 3% in data set [1] (250 μM). Also, the “Lyso assay (% inhibition) LPL” value in data set [2] (25 μM) and in data set [2] (250 μM) was 250 μM = 0% 25 μM = 0% 2.5 μM = n.d. 0.25 μM = n.d throughout. For the same compound, the “Lyso assay (% inhibition) LPTA” value in data set [2] (25 μM) is on record as 4%; in data set [2] (250 μM), 5%. Further, the MIC in data set [3] (setting [8]) and in data set [4] (setting [9]) was 175 µM each time. Besides, the “Haemolytic assay (%)” value in data set [5] (3.5 μM), in data set [5] (35 μM), in data set [5] (88 μM), in data set [5] (175 μM) and in data set [5] (350 μM) was 350 μM = 0% 175 μM = 0% 88 μM = 0% 35 μM = 0% 3.5 μM = 0% in each case.

In the case of `CCCCC[N+](CCCCC)(CCCCC)CCCCCCCCCCCC[N+](CCCCC)(CCCCC)CCCCC.[Br-].[Br-]` [1,12-Bis-(tripentylammonium)dodecane dibromide], the “PLB assay (% inhibition)” value in data set [1] (0.25 μM) was found to be 0%; in data set [1] (2.5 μM) it was 12%; in data set [1] (25 μM), 73%; in data set [1] (250 μM), 63%. In addition, the “Lyso assay (% inhibition) LPL” value in data set [2] (25 μM) and in data set [2] (250 μM) was 250 μM = 10% 25 μM = 10% 2.5 μM = n.d. 0.25 μM = n.d in each case. Further, the results for the “Lyso assay (% inhibition) LPTA” value in data set [2] (25 μM) and in data set [2] (250 μM) were 0% and 2.4%, respectively. The MIC in data set [3] (Table 7, read-out: MIC (μM) C. alb. (10231)) came out at 5.5 µM; in data set [4] (Table 7, read-out: MIC (μM) Crypto. (ATCC 90112)) it was 5.5 µM.

For the compound `CCC[N+](CCC)(CCC)CCCCCCCCCCCC[N+](CCC)(CCC)CCC` [1,12-Bis-(tripropylammonium)dodecane dibromide], the “PLB assay (% inhibition)” value turned out to be 5% in data set [1] (0.25 μM); 6% in data set [1] (2.5 μM); 42% in data set [1] (6.7 μM); 68% in data set [1] (12.5 μM); 71% in data set [1] (25 μM); 80% in data set [1] (250 μM). The “Lyso assay (% inhibition) LPL” value is on record as 0% in data set [2] (0.25 μM), 0% in data set [2] (2.5 μM), 5% in data set [2] (25 μM) and 8% in data set [2] (250 μM). Moreover, the “Lyso assay (% inhibition) LPTA” value came to 0% in data set [2] (0.25 μM), 0% in data set [2] (2.5 μM), 20% in data set [2] (25 μM) and 10% in data set [2] (250 μM). Further, the MIC in data set [3] (setting [6]) came to 10 µM; in data set [4] (setting [7]) it was 5.5 µM.

Take `CCCC[N+]1(CCCCCCCCCCCC[N+]2(CCCC)CCCC2)CCCC1` [C12-bis-N-butyl-pyro. dibromide, 1,12-Bis-(N-butylpyrrolidinium)dodecane dibromide]: the MIC in data set [3] (setting [6]) and in data set [4] (setting [7]) was 88 µM each time. In addition, the “Haemolytic assay (%)” value in data set [5] (3.5 μM), in data set [5] (35 μM), in data set [5] (88 μM), in data set [5] (175 μM) and in data set [5] (350 μM) was 350 μM = 0% 175 μM = 0% 88 μM = 0% 35 μM = 0% 3.5 μM = 0% throughout.

`C[N+]1(CCCCCCCCCCCC[N+]2(C)CCCC2)CCCC1` [C12-bis-N-methyl-pyro. dibromide, 1,12-Bis-(1-methylpyrrolidinium)dodecane dibromide]: the “PLB assay (% inhibition)” value in data set [1] (25 μM) turned out to be 0%; in data set [1] (250 μM), 9%. For the same compound, the “Lyso assay (% inhibition) LPL” value in data set [2] (25 μM) and in data set [2] (250 μM) was 250 μM = 0% 25 μM = 0% 2.5 μM = n.d. 0.25 μM = n.d in each case. In addition, the “Lyso assay (% inhibition) LPTA” value in data set [2] (25 μM) and in data set [2] (250 μM) was 250 μM = 0% 25 μM = 0% 2.5 μM = n.d. 0.25 μM = n.d throughout. Also, the MIC in data set [3] (setting [8]) and in data set [4] (setting [9]) was 175 µM in each case.

What is called MIC is the lowest concentration found to suppress growth.
